From patent publication US10272081B2, “SHIP1 modulators and methods related thereto” (Aquinox Pharmaceuticals (Canada) Inc., priority 2013, dated 2019)

Each compound was assayed against T1, His-hSHIP1 enzyme (Homo sapiens, UniProt Q92835) (assay: His-hSHIP1 activity, approach 1 (phosphate release from IP4, Biomol Green)). Conditions: activation of His-hSHIP1; IP4 50 μM; test compound 0-300 μM; no asterisk in Table 2.
T1 construct: His
T1 sequence (Q92835 1-1189): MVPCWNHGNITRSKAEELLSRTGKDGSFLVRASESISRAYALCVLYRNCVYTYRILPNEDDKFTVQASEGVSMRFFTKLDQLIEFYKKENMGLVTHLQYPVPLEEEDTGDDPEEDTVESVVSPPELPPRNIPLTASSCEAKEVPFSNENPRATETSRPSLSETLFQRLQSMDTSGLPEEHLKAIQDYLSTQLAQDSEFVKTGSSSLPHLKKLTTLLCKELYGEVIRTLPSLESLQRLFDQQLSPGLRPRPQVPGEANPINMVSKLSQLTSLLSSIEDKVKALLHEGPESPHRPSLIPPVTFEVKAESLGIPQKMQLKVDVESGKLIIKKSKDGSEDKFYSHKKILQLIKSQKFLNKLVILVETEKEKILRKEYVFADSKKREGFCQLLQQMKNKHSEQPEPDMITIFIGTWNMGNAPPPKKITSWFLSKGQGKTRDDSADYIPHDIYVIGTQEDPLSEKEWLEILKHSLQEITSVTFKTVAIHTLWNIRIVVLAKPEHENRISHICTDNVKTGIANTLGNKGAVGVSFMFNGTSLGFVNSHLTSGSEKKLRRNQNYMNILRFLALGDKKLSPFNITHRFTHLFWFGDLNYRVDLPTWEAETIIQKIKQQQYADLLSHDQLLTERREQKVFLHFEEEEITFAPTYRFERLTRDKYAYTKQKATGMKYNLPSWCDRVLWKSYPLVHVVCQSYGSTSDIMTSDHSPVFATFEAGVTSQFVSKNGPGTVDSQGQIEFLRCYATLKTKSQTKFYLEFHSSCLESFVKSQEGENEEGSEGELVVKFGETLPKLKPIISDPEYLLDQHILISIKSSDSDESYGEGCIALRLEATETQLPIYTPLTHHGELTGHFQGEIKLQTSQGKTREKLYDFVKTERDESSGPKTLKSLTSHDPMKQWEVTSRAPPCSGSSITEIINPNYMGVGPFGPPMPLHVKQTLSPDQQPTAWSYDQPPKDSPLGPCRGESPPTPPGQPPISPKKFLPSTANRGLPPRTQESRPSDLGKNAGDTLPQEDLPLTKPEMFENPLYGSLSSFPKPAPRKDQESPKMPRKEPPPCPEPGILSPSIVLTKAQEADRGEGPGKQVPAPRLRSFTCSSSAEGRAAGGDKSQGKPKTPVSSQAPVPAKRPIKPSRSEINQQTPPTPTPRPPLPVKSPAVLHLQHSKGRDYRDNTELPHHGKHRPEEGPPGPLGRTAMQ
Assay type: biochemical
Experimental: Test compounds are dissolved in 95% ethanol to form stock solutions. Before screening, the stock solutions are diluted with Phosphatase Assay Buffer (20 mM Tris-HCL, 10 mM MgCl2 pH 7.5, 0.02% Tween 20) to form working assay solutions that contain 10% ethanol. The assay is carried out on 96-well microtiter plates using a modified procedure of that reported by Ong et al., Blood 110, 1942-1949, 2007 and Yang et al., Org Lett 7, 1073-1076, 2005, both of which references are incorporated herein by reference in their entirety.
Data were generated by one of two variant methods. Test compounds are screened by one of two approaches described as follows. In the first approach, each reaction contains 5 μL of His-hSHIP1 enzyme (5-20 ng), 10 μL of the substrate, 1,3,4,5-inositol tetrakisphosphate (IP4; 50 μM final), 5 μL of Phosphatase Assay Buffer, and 5 µL of test compound at various concentrations in 10% ethanol (0-300 μM final). Control blanks are also prepared by replacing His-hSHIP1 enzyme, IP4, or test compounds with Phosphatase Assay Buffer. After adding the reaction components in a 96-well microtiter plate on ice, the reaction is mixed by briefly shaking the plate vigorously. The reaction is then incubated at 37° C. for 15 min with gentle shaking followed by addition of 100 μL of Biomol Green Reagent (BIOMOL, Pa., USA) to terminate the reaction. The free phosphate released from IP4 by His-hSHIP1 binds to the Biomol Green Reagent, which turns the dye to green color. After incubating the mixture for 20 min at room temperature for color development, the absorbance is read with SpectraMax Plus 96-well plate reader (Molecular Devices, Sunnyvale, Calif., USA) at a wavelength of 650 nm.

SMILES | Scoring, Approach 1 (% increase relative to background)
COc1cc(O)cc(NC(=O)C2=C(C)CC[C@H]3C(C)(C)CCC[C@]23C)c1 [Compound No. 42, (4aS,8aS)-N-(3-hydroxy-5-methoxyphenyl)-2,5,5,8a-tetramethyl-3,4,4a,5,6,7,8,8a-octahydronaphthalene-1-carboxamide] | + (0 < x < 50)
Cc1cc(O)cc(C(=O)[C@H]2[C@H](C)C(O)C[C@H]3C(C)(C)CCC[C@]23C)c1 (stereo partly drawn) [Compound No. 23, (3S,4S,4aS,8aS)-4-[(3-hydroxy-5-methylphenyl)carbonyl]-3,4a,8,8-tetramethyl-decahydronaphthalen-2-ol] | + (0 < x < 50)
Cc1cc(O)cc(C(=O)C2[C@@H](C)[C@H](O)C[C@H]3C(C)(C)CCC[C@]23C)c1 (stereo partly drawn) [Compound No. 9, (2R,3R,4aS,8aS)-4-[(3-hydroxy-5-methylphenyl)carbonyl]-3,4a,8,8-tetramethyl-decahydronaphthalen-2-ol] | + (0 < x < 50)
COc1cc(C)cc(OC[C@H]2C(C)C(O)C[C@H]3C(C)(C)CCC[C@]23C)c1 (stereo partly drawn) [Compound No. 30, (4S,4aS,8aS)-4-(3-methoxy-5-methylphenoxymethyl)-3,4a,8,8-tetramethyl-decahydronaphthalen-2-ol] | + (0 < x < 50)
Cc1cc(O)cc(C[C@H]2[C@@H](CO)CC[C@H]3C(C)(C)CCC[C@]23C)c1 [Compound No. 17, 3-{[(1S,2S,4aS,8aR)-2-(hydroxymethyl)-5,5,8a-trimethyl-decahydronaphthalen-1-yl]methyl}-5-methylphenol] | ++ (50 ≤ x < 65)
COc1cc(C)cc(C(=O)[C@H]2[C@@H](C)[C@H](O)C[C@H]3C(C)(C)CCC[C@]23C)c1 [Compound No. 6, (2R,3R,4S,4aS,8aS)-4-[(3-methoxy-5-methylphenyl)carbonyl]-3,4a,8,8-tetramethyl-decahydronaphthalen-2-ol] | + (0 < x < 50)
Cc1cc(O)cc(C(=O)[C@H]2[C@H](C)C(=O)C[C@H]3C(C)(C)CCC[C@]23C)c1 [Compound No. 8, (3S,4S,4aS,8aS)-4-[(3-hydroxy-5-methylphenyl)carbonyl]-3,4a,8,8-tetramethyl-decahydronaphthalen-2-one] | + (0 < x < 50)
CC1=CC[C@H]2C(C)(C)CCC[C@]2(C)[C@H]1COc1cc(C)cc(O)c1 [Compound No. 29, 3-{[(1S,4aS,8aS)-2,5,5,8a-tetramethyl-1,4,4a,5,6,7,8,8a-octahydronaphthalen-1-yl]methoxy}-5-methylphenol] | +++ (x ≥65)
COc1cc(C)cc(OC[C@@H]2[C@@]3(C)CCCC(C)(C)[C@@H]3CC[C@@]2(C)O)c1 [Compound No. 27, (1S,2R,4aS,8aS)-1-(3-methoxy-5-methylphenoxymethyl)-2,5,5,8a-tetramethyl-decahydronaphthalen-2-ol] | ++ (50 ≤ x < 65)

Further lines, results first:

Scoring, Approach 1 (% increase relative to background) | SMILES
++ (50 ≤ x < 65) | COc1cc(OC)cc(C(=O)C[C@@H]2[C@@]3(C)CCCC(C)(C)[C@@H]3CC[C@@]2(C)O)c1 [Compound No. 45, 2-[(1R,2R,4aS,8aS)-2-hydroxy-2,5,5,8a-tetramethyl-decahydronaphthalen-1-yl]-1-(3,5-dimethoxyphenyl)ethan-1-one]
+++ (x ≥65) | C[C@H]1CC[C@H]2C(C)(C)CCC[C@]2(C)[C@H]1CCc1cc(O)cc(O)c1 [Compound No. 62, 5-{2-[(1S,2S,4aS,8aR)-2,5,5,8a-tetramethyl-decahydronaphthalen-1-yl]ethyl}benzene-1,3-diol]
+++ (x ≥65) | Cc1cc(O)cc(C(=O)[C@H]2[C@H](C)C(C(N)=O)C[C@H]3C(C)(C)CCC[C@]23C)c1 (stereo partly drawn) [Compound No. 65, (3S,4S,4aS,8aS)-4-[(3-hydroxy-5-methylphenyl)carbonyl]-3,4a,8,8-tetramethyl-decahydronaphthalene-2-carboxamide]
++ (50 ≤ x < 65) | COc1cc(OC)cc(C(=O)[C@H]2C(C)=CC[C@H]3C(C)(C)CCC[C@]23C)c1 [Compound No. 51, [(1S,4aS,8aS)-2,5,5,8a-tetramethyl-1,4,4a,5,6,7,8,8a-octahydronaphthalen-1-yl](3,5-dimethoxyphenyl)methanone]
+ (0 < x < 50) | C[C@@H]1[C@H](N)C[C@H]2C(C)(C)CCC[C@]2(C)[C@H]1C(=O)c1cc(O)cc(O)c1 [Compound No. 56, 5-{[(1S,2S,3R,4aS,8aS)-3-amino-2,5,5,8a-tetramethyl-decahydronaphthalen-1-yl]carbonyl}benzene-1,3-diol]
+++ (x ≥65) | COc1cc(OC)cc(C(=O)[C@H]2[C@@H](C)[C@H](O)C[C@H]3C(C)(C)CCC[C@]23C)c1 [Compound No. 52, (2R,3R,4S,4aS,8aS)-4-[(3,5-dimethoxyphenyl)carbonyl]-3,4a,8,8-tetramethyl-decahydronaphthalen-2-ol]
+ (0 < x < 50) | CC1=C(C(=O)Nc2cc(O)cc(O)c2)[C@@]2(C)CCCC(C)(C)[C@@H]2CC1 [Compound No. 43, (4aS,8aS)-N-(3,5-dihydroxyphenyl)-2,5,5,8a-tetramethyl-3,4,4a,5,6,7,8,8a-octahydronaphthalene-1-carboxamide]
+ (0 < x < 50) | COc1cc(OC)cc(C(=O)[C@H]2[C@H](C)[C@H](N)C[C@H]3C(C)(C)CCC[C@]23C)c1 [Compound No. 55, (2R,3S,4S,4aS,8aS)-4-[(3,5-dimethoxyphenyl)carbonyl]-3,4a,8,8-tetramethyl-decahydronaphthalen-2-amine]
++ (50 ≤ x < 65) | COc1cc(O)cc(C(=O)C[C@H]2[C@@H](C)CC[C@H]3C(C)(C)CCC[C@]23C)c1 [Compound No. 47, 2-[(1S,2S,4aS,8aR)-2,5,5,8a-tetramethyl-decahydronaphthalen-1-yl]-1-(3-hydroxy-5-methoxyphenyl)ethan-1-one]
++ (50 ≤ x < 65) | COc1cc(OC)cc(C(=O)C[C@H]2[C@@H](C)CC[C@H]3C(C)(C)CCC[C@]23C)c1 [Compound No. 46, 2-[(1S,2S,4aS,8aR)-2,5,5,8a-tetramethyl-decahydronaphthalen-1-yl]-1-(3,5-dimethoxyphenyl)ethan-1-one]
++ (50 ≤ x < 65) | COc1ccc(CN[C@@H]2C[C@H]3C(C)(C)CCC[C@]3(C)[C@@H](C(=O)c3cc(OC)cc(OC)c3)[C@@H]2C)cc1 [Compound No. 54, (2R,3S,4S,4aS,8aS)-4-[(3,5-dimethoxyphenyl)carbonyl]-N-[(4-methoxyphenyl)methyl]-3,4a,8,8-tetramethyl-decahydronaphthalen-2-amine]
++ (50 ≤ x < 65) | COc1cc(OC)cc(C(=O)[C@H]2[C@@H](C)C(=O)C[C@H]3C(C)(C)CCC[C@]23C)c1 [Compound No. 53, (3R,4S,4aS,8aS)-4-[(3,5-dimethoxyphenyl)carbonyl]-3,4a,8,8-tetramethyl-decahydronaphthalen-2-one]
